What was measured:
[1] = target: T1, IKK1 (Homo sapiens, UniProt O15111); assay: IKK immunoprecipitation kinase assay and Western blot after FUT treatment of cells; assay type: cell-based
T1 construct: endogenous in cells; host or cells: MDAPanc-28 (human pancreas cancer cell line)
Procedure: (§1) After FUT treatment, the human pancreas cancer cell line […]-28 was rinsed with ice-cold PBS to prepare 800 μg of cytoplasmic fraction. After adding glutathione sepharose beads (Amersham Pharmacia Biotech), the sample was invertedly mixed at 4° C. for 3 hours to remove non-specific absorption fractions. 4 μg of anti-IKK1/2 antibody (Santa Cruz Biotechnology) were added to the supernatant for reaction at 4° C. overnight. After adding glutathione sepharose beads, the sample was further mixed at 4° C. for 3 hours. The beads containing bound immunocomplex were rinsed twice with PBS and then subjected to immunoprecipitation and measurements of enzyme activity. To conduct the measurements of enzyme activity, the above mentioned beads were rinsed with kinase buffer (25 mM HEPES containing 150 mM NaCl, 25 mM beta-glycerophosphate and 10 mM MgCl2) to perform enzyme reaction. 5 uCi of ^32P-labeled y-ATP and 1 μg of the substrate GST-IκBα were reacted in the kinase buffer for 30 minutes at 37° C. The reaction was terminated by adding SDS sample buffer. The sample was analyzed by SDS-PAGE followed by autoradiography for detection.

[2] = target: T2, IKK2 (Homo sapiens, UniProt O14920); assay: as above; assay type: cell-based
T2 construct: endogenous in cells; host or cells: MDAPanc-28 (human pancreas cancer cell line)
Procedure: as §1

[3] = MDAPanc-28 cytoplasmic fraction, before and after FUT treatment
[4] = immunoprecipitate from FUT-treated MDAPanc-28, substrate GST-IκBα

T1 sequence (O15111 whole entry): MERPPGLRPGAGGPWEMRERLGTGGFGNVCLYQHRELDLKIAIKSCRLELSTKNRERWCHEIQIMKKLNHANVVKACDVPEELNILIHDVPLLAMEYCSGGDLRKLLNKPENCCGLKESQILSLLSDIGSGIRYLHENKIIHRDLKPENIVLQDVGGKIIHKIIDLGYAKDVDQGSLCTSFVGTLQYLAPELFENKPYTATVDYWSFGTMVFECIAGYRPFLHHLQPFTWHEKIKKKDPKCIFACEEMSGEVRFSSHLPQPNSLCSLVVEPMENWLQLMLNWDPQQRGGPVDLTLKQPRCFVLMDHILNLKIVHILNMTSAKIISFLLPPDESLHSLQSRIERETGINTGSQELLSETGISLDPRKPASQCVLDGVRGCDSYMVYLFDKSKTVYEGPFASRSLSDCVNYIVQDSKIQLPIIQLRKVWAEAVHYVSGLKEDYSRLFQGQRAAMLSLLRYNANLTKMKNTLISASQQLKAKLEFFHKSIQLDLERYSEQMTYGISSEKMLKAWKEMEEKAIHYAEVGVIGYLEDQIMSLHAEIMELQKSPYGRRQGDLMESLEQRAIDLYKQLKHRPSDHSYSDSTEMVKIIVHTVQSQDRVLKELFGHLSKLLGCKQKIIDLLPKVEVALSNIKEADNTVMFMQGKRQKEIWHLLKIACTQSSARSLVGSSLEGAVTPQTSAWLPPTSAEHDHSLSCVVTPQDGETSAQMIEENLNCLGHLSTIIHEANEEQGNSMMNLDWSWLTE
T1 sequence (O14920 whole entry partner): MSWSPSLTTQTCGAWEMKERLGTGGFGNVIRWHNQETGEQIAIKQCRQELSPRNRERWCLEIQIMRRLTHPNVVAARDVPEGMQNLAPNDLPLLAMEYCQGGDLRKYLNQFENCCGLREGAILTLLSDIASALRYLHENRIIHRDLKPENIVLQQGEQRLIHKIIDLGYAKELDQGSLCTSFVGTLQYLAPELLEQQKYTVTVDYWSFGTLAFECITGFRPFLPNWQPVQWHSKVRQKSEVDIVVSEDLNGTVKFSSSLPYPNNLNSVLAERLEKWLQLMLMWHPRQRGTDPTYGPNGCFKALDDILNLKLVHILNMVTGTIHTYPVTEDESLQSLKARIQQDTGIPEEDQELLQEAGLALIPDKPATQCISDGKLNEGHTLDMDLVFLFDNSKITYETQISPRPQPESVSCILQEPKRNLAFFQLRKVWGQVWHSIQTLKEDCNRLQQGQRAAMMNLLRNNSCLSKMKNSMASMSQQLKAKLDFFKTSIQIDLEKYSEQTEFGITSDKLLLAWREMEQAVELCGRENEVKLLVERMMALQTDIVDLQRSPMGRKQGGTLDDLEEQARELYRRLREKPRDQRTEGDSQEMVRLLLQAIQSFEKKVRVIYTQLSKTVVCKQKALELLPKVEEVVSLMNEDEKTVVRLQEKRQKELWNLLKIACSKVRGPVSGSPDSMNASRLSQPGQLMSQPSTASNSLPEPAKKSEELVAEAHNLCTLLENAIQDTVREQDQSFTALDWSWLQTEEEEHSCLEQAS
T1 sequence (Q9Y6K9 whole entry partner): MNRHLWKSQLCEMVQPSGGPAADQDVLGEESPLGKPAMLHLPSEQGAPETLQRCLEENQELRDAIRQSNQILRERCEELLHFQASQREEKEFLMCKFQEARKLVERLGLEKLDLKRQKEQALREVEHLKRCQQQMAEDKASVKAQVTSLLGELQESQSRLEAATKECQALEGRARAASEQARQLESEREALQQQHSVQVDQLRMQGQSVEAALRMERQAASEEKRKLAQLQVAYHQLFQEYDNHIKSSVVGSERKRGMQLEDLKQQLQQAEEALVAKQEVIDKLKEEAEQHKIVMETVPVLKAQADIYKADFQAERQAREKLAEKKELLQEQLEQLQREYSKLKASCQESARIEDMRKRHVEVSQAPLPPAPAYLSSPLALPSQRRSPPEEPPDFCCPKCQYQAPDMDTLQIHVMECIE
T2 sequence (O14920 whole entry): as the sequence (O14920 whole entry partner) above
T2 sequence (O15111 whole entry partner): as the sequence (O15111 whole entry) above
T2 sequence (Q9Y6K9 whole entry partner): as the sequence (Q9Y6K9 whole entry partner) above

N=C(N)c1ccc2cc(OC(=O)c3ccc(N=C(N)N)cc3)ccc2c1 [FUT, 6-amidino-2-naphthyl p-guanidinobenzoate dimethanesulfonate]
expression level of IKK1 [1, 3]: remain intact | enzyme activity of IKK1 [1, 4]: reduces the enzyme activities of IKK1 and IKK2 | expression level of IKK2 [2, 3]: remain intact | enzyme activity of IKK2 [2, 4]: reduces the enzyme activities of IKK1 and IKK2

Source: patent publication US20100015249A1, “Antitumor agent containing 6'-amidino-2'-naphthyl 4-guanidinobenzoate or salt thereof” (priority 2005, published 2010)
